What was measured:
[1] = system: Wnt responsive luciferase reporter (TCF4-Luc); assay: TCF4-Luc luciferase reporter assay in UMR 106 cells; type: cell-based
LRP6/Axin binding = assay: Axin-LRP6 binding immunoprecipitation assay; type: cell-based; settings: HEK 293 cells cotransfected with LRP6, Axin and GSK3β; ligand for 1 hour
Axin = Axin protein levels; type: cell-based; settings: cells overexpressing LRP6
From the text: Binding of Axin to phosphorylated LRP6 leads to rapid degradation. Then inhibition of Axin/LRP6 binding should […] degradation of Axin. Indeed, Axin degradation is reduced by both inhibitors (data not shown). […] PKA and PKC also were examined to determine whether they regulate PTH-induced PTH1R/LRP6 complex formation. […] Apparently, the receptor complex formation is independent of activation of PKA and PKC. Instead, it seems that activation of G protein-mediated PKA and PKC signaling is in parallel with the recruitment of LRP5/6 in PTH signaling. PKA and PKC activity is required for LRP5/6 phosphorylation and Axin/LRP6 binding.
Wnts induce binding of Axin to phosphorylated LRP6, and the membrane-bound Axin undergoes rapid protein dephosphorylation and degradation, which eventually leads to β-catenin stabilization Willert et al., 1999; Yamamoto et al., 1999).

β-catenin in osteoblasts [2] = assay: β-catenin immunostaining of femur and tibia after single PTH injection in rats; type: in vivo, rat
From the text: (§1) Immunohistochemical staining of representative sections with antibody against β-catenin at 10× objective and 40× objective counterstained with hematoxylin from either primary spongliosa subjacent to the epiphyseal growth plates or Spongiosa subjacent to diaphyseal hematopoietic bone marrow of different time points after PTH single injection in rats. […] Each value is the mean±SEM of determinations in three independent slides of each animal and three animals of each group. Panels B and C show graphs of the expression of MPK1 mRNA and the ratio of RANKL/OPG as quantified by real-time PCR in cavaria tissue from the same animals. Panel D—Immunohistochemical β-catenin staining of representative sections were counterstained with hematoxylin from metaphyseal area of distal femurs of mice at six weeks of age. (i) vehicle control daily injection for 28 days; (ii) hPTH (1-34) 100 ng/g. b.w daily injection for 28 days; (iii) vehicle control continuous infusion with an osmotic pump; and (iv) hPTH (1-34) continuous infusion at 500 ng/h with an osmotic pump. Panel D is a graph showing the numbers of β-catenin-positive osteoblasts as a percent of total osteoblasts per field that were determined. Each value is the mean±SEM of determinations in three independent slides of each animal and three animals of each group.
β-Catenin, activated by either Wnt or TGF signaling, stimulates proliferation of osteoprogenitors and bone formation. […] Therefore, the dynamics of β-catenin levels were determined at various time points after a single dose injection of PTH (1-34) in seven-month-old rats. Sections of femur and tibia were immunostained for HE, trichrome, and β-catenin. The first signs of β-catenin expression in osteoblasts appeared at 2 hours after PTH injection, reached a peak at 8 hours, and decreased at 24 hours. […] Specifically, 99.76% of osteoblasts at primary spongliosa subjacent to the epiphyseal growth plates were β-catenin positive, and 89.91% at spongiosa subjacent to diaphyseal hematopoietic bone marrow were β-catenin positive (FIG. 7A).
To further examine whether LRP5/6 mediates PTH-elevated β-catenin levels in vivo, trabecular bone sections were immunostained with the antibody against phosphorylated PPPSP motif. Formalin-fixed tissue sections of 5 μm thickness were deparaffinized in xylene and rehydrated in graded alcohols. Antigen retrieval was achieved by incubating tissue sections in boiling 10 mmol/L citrate buffer (pH 6.0) for 5 minutes in a microwave oven. All sections were then incubated with hydrogen peroxide for 5 minutes. Subsequently, sections were incubated with the primary antibodies against β-catenin or LRP6 1490 for 1 hour at room temperature. After rinsing the primary antibody in T-PBS, antibody detection was accomplished using the Super Sensitive biotin-streptavidin horseradish peroxidase detection kit (Biogenex, San Ramon, Calif.). The diaminobenzidine tetrachloride Super Sensitive substrate kit (Biogenex, San Ramon, Calif.) was used to visualize the antibody-antigen complex. The sections were then counterstained with hematoxylin. Appropriate negative controls, consisting of tissue sections of each case processed without the addition of primary antibody, were prepared along with positive multitissue control sections. Only those cases with greater than 10% immunohistochemical stains were considered as positive. Assessment of the immunohistochemical staining was performed independently by two pathologists. […]

[3] = Bone formation in mice, daily injection or continuous infusion for 28 days; type: in vivo, mouse
From the text: as §1
(§2) The role of β-catenin in PTH-induced bone formation was then examined. PTH stimulates bone formation when injected daily, i.e. intermittent injection, but causes severe bone loss when infusion continuously. Mice were injected either daily or continuously by infusion with an osmotic pump for 28 days. […] Similar results were obtained in double labeling.

β-catenin in osteoblasts [4] = assay: β-catenin immunostaining of trabecular bone in mice, 28 days PTH; type: in vivo, mouse; settings: for percentage of β-catenin positive osteoblasts: 28 days
From the text: as §1, §2

[5] = system: TGF-β-induced transcription activity; assay: Smad binding response luciferase reporter (SBE-luc) in 293 cells; type: cell-based; settings: TGF-β 2 ng/ml, 50 nM
Experimental: A Smad binding response luciferase reporter (SBE-luc) was transfected into 293 cells. TGF-β (2 ng/ml) was added in combination with different doses of PTH (1-34) or cPTH (39-84). Twenty-four hours after transfection, the cells were lysed and the luciferase signal was detected. Luciferase values shown in the figures are representative of transfection experiments performed in triplicate in at least three independent experiments. The relative increased fold of the luciferase activity stimulated by TGF-β in each cell line was calculated.
A Smad binding response luciferase reporter (SBE-luc) was introduced into the multi-cloning site of pcDNA3 (Invitrogen), and the resulting vector was transfected into 293 cells using Lipofectamine Plus reagent (Invitrogen, Cat. No. 10964-013). TGF-β (2 ng/ml) was added in combination with different doses of PTH (1-34) (50 nM) or cPTH (39-84) (50 nM). […] Forty-two hours after transfection, the cells were lysed, and the luciferase signal was detected using the Dual Luciferase assay kit (Promega) according to the manufacturer's instructions.
Luciferase values shown in the figures are representative of transfection experiments performed in triplicate in at least three independent experiments. The relative increased fold of the luciferase activity stimulated by TGF-β in each cell line was calculated.

PTH1R-TβRII interaction = target: T1, PTH1R-TβRII interaction (Homo sapiens, UniProt P37173+Q03431); assay: YFP protein-fragment complementation assay, TβRII-YFP1 and PTH1R-YFP2; type: cell-based; settings: both constructs expressed; plasma membrane
T1 construct: expressed in transfected cells
From the text: A yellow fluorescent protein (YFP)-based protein-fragment complementation assay (PCA) was employed (Remy et al., 2004). YFP1 fragment was fused into the C-terminal of TβRII. YFP2 fragment was fused into the C-terminal of PTH1R. The PCA strategy was to facilitate visualization of the PTH1R-TβRII interaction through reconstituted YFP in living cells when the interaction brings the complementary fragments of the YFP into close proximity.
The PTH^TMR was then employed in the PCA experiment. […] Almost all the reconstituted YFP associated with PTH^TMR. The observation was further confirmed by the immunostaining of TβRII and PTH1R in the PTH^TMR-treated cells. TβRII, PTH1R, and PTH ligand predominantly colocalize into the same cytoplasmic vesicles (data not shown).

TGFβ/Smad signaling = TGFβ/Smad signaling after PTH pretreatment; type: cell-based; settings: C2C12 cells; TGFβ stimulation
Experimental: Panel B is a graph showing the decrease in activity from the SBE-luciferase reporter in the presence of PTH and PTH1R.
It has been reported that TGFβ-induced endocytosis of TGFβ/TβRII is mediated by Sara endosome. The response of TβRII to PTH was analyzed to determine whether it is the same as to TGFβ. […] The observation was confirmed by TGFβ-induced interaction between Smad2 and Smad4.

[6] = rats, 8 hours after single injection of PTH (1-34)
[7] = seven-month-old rats, single dose injection of PTH (1-34)

T1 sequence (Q03431 27-593): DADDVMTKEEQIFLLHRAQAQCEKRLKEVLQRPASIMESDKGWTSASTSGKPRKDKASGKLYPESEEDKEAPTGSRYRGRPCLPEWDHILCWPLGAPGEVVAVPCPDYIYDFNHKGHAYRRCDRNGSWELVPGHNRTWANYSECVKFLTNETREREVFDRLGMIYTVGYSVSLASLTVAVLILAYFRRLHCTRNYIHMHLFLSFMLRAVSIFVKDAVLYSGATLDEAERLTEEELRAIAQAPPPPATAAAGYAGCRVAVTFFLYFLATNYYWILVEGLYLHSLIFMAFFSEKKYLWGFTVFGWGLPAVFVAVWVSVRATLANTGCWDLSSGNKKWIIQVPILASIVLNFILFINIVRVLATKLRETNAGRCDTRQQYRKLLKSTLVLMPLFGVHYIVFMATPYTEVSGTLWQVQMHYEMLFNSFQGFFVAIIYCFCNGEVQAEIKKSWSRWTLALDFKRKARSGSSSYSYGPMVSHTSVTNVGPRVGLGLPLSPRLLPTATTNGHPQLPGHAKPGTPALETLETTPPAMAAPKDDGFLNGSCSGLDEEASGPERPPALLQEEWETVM
T1 sequence (P37173 23-567): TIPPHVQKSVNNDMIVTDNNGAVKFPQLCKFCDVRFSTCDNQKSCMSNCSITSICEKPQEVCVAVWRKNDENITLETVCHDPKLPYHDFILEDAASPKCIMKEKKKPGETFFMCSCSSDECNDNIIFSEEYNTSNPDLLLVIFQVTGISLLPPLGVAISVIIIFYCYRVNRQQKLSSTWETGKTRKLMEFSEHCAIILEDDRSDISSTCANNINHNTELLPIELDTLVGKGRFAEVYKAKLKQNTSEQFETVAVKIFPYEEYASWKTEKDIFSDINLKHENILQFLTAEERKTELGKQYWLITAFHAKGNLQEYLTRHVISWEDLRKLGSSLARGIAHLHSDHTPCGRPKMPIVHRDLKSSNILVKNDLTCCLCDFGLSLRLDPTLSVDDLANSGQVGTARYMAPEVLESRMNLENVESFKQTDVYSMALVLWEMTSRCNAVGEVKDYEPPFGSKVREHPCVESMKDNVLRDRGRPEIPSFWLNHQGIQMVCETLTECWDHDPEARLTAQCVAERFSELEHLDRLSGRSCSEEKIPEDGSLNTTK

PTH (1-34): N-terminal fragment of PTH, amino acids 1-34
TCF luciferase activity ([1]; 5×10^−7 M of indicated PTH ligands for 12 hours): significantly elevated | activation of TCF4-Luc reporter ([1]; 10^−7M PTH (1-84), 12 hours): activated the TCF4-Luc reporter | Axin-LRP6 binding (LRP6/Axin binding): stimulated Axin-LRP6 binding | Axin protein levels (Axin): further downregulated Axin protein levels | β-catenin positive osteoblasts at primary spongliosa subjacent to the epiphyseal growth plates (β-catenin in osteoblasts [2]; [6]): 99.76% | β-catenin positive osteoblasts at spongiosa subjacent to diaphyseal hematopoietic bone marrow (β-catenin in osteoblasts [2]; [6]): 89.91% | first signs of β-catenin expression in osteoblasts after PTH injection (β-catenin in osteoblasts [2]; [7]): 2 h | peak of β-catenin expression in osteoblasts after PTH injection (β-catenin in osteoblasts [2]; [7]): 8 h | β-catenin expression in osteoblasts at 24 hours (β-catenin in osteoblasts [2]; seven-month-old rats, single dose injection of PTH (1-34), 24 hours): decreased | osteoblast proliferation (BrdU labeling) ([3]; PTH continuous infusion): reduced proliferation | osteoblast proliferation (BrdU labeling) ([3]; PTH daily injection): stimulated | mineralization in the trabecular and cortical bone matrix (von Kossa) ([3]; PTH intermittent injection, data not shown): increased | bone mineral density ([3]; continuous infusion with osmotic pump for 28 days (500 ng/h), data not shown): decreased | bone mineral density ([3]; daily injection for 28 days (100 ng/g b.w), data not shown): significantly increased | osteoblast numbers per square millimeter tissue area (N. Ob/T.Ar) ([3]; primary spongiosa of femur, data not shown): increased | percentage of β-catenin positive osteoblasts (β-catenin in osteoblasts [4]; PTH continuous infusion): 23.54% | β-catenin in osteoblasts (immunostaining) (β-catenin in osteoblasts [4]; PTH continuous infusion, in comparison with control): reduced the level of β-catenin | β-catenin in osteoblasts (immunostaining) (β-catenin in osteoblasts [4]; PTH intermittent injection): significantly increased β-catenin in osteoblasts | percentage of β-catenin positive osteoblasts (β-catenin in osteoblasts [4]; PTH intermittent injection): 96.03% | levels of β-catenin in osteocytes, osteoclasts, and bone marrow cells (β-catenin in osteoblasts [4]; data not shown): remained barely detectable | effect on TGF-β-induced transcription activity (SBE-luc) [5]: inhibited TGF-β-induced transcription activity

TGF-β1: TGF-β ligand used as stimulus and comparator
YFP fluorescence from TβRII-YFP1 and PTH1R-YFP2 (PTH1R-TβRII interaction): did not show such an effect | phosphorylation of Smad2 (TGFβ/Smad signaling): activated
